Converted amounts (≈) assume the structure as drawn. One block for each compound: values may come before it.
Assays:
Test in all cases: ≥ marks a high value that may be exact or a test limit, other limits are often not marked, values filed in µg/mL are converted to µM
[1] = tested on: Pseudomonas aeruginosa ATCC 27853
[2] = tested on: Candida tropicalis DBFIQ 3
[3] = tested on: Staphylococcus aureus ATCC 25923
[4] = tested on: Enterococcus faecalis ATCC 29212
Candida albicans PEEC 2 = tested on: Candida albicans PEEC 2
[5] = tested on: Escherichia coli ATCC 35218
[6] = tested on: Staphylococcus aureus BSF FBCB1313
Candida albicans DBFIQ 1 = tested on: Candida albicans DBFIQ 1
[7] = tested on: Cryptococcus neoformans ATCC 32264
[8] = tested on: Candida albicans ATCC 10231
Escherichia coli = tested on: Escherichia coli
[9] = tested on: Staphylococcus aureus ATCC BAA-1683
Yersinia enterocolitica = tested on: Yersinia enterocolitica
[10] = tested on: Staphylococcus aureus ATCC 43300
[11] = tested on: Staphylococcus aureus ATCC 29213
[12] = tested on: Salmonella enterica subsp. enterica serovar Enteritidis
[13] = tested on: Escherichia coli ATCC 25922
Salmonella sp. = tested on: Salmonella sp.
[14] = tested on: Staphylococcus aureus ATCC 29231
[15] = tested on: Acinetobacter baumannii ATCC 7978
[16] = tested on: Enterococcus faecium E007
[17] = tested on: Pseudomonas aeruginosa PAO1
Candida parapsilosis = tested on: Candida parapsilosis
Bacillus subtilis DELTA = tested on: Bacillus subtilis DELTA
[18] = tested on: Escherichia coli DH5alpha
[19] = tested on: Zymomonas mobilis ATCC 10988
[20] = tested on: Salmonella enterica serovar Typhimurium
[21] = tested on: Achromobacter xylosoxidans
[22] = tested on: Pseudomonas aeruginosa R70
Candida albicans = tested on: Candida albicans
Pseudomonas fluorescens = tested on: Pseudomonas fluorescens
Staphylococcus aureus = tested on: Staphylococcus aureus
Ralstonia pickettii = tested on: Ralstonia pickettii
[23] = tested on: Pseudomonas aeruginosa M1251
Escherichia coli UB1005 = tested on: Escherichia coli UB1005
[24] = tested on: Pseudomonas aeruginosa M76
[25] = tested on: Stenotrophomonas maltophilia
[26] = tested on: Pseudomonas aeruginosa M917
[27] = tested on: Pseudomonas aeruginosa M1426
Vibrio anguillarum = tested on: Vibrio anguillarum
[28] = tested on: Staphylococcus epidermidis C621
[29] = tested on: Pseudomonas aeruginosa K799
[30] = tested on: Pseudomonas aeruginosa Z61
[31] = tested on: Salmonella enterica serovar typhimurium MS7953s
Aeromonas salmonicida = tested on: Aeromonas salmonicida
[32] = tested on: Salmonella enterica subsp. enterica serovar Typhimurium ATCC 14028s

MIC [1]: 60.9 µM (≈ 64 µg/mL)
MIC [2]: ≥ 122 µM
MIC [3]: 7.6 µM (≈ 7.98 µg/mL)
MIC [4]: 15.2 µM (≈ 16 µg/mL)
MIC (Candida albicans PEEC 2): ≥ 122 µM
MIC [5]: 7.6 µM (≈ 7.98 µg/mL)
MIC [6]: 30.5 µM (≈ 32 µg/mL)
MIC (Candida albicans DBFIQ 1): ≥ 122 µM
SMILES: CC(C)C[C@H](NC(=O)[C@H](CCCCN)NC(=O)[C@H](CCCCN)NC(=O)[C@H](Cc1ccccc1)NC(=O)[C@H](CC(C)C)NC(=O)[C@@H](N)CCCCN)C(=O)N[C@@H](Cc1ccccc1)C(=O)N[C@@H](CCCCN)C(N)=O [KLFKKLFK]

MIC [7]: 25 µM (≈ 43.2 µg/mL)
MIC [8]: 50 µM (≈ 86.3 µg/mL)
SMILES: CC[C@H](C)[C@H](NC(=O)[C@H](CCC(N)=O)NC(=O)[C@@H](N)CCCN=C(N)N)C(=O)N[C@@H](CCCN=C(N)N)C(=O)N[C@@H](CCCN=C(N)N)C(=O)N[C@@H](Cc1c[nH]c2ccccc12)C(=O)N[C@@H](Cc1c[nH]c2ccccc12)C(=O)N[C@@H](CCC(N)=O)C(=O)N[C@@H](Cc1c[nH]c2ccccc12)C(=O)N[C@@H](CCCN=C(N)N)C(=O)N[C@@H](CCCN=C(N)N)C(N)=O [RQIRRWWQWRR]

MIC (Escherichia coli): 347 µM (≈ 500 µg/mL)
MIC [3]: 86.6 µM (≈ 125 µg/mL)
MIC [9]: ≥ 86.6 µM
SMILES: CC(C)C[C@H](NC(=O)[C@H](CC(C)C)NC(=O)[C@H](CCCN=C(N)N)NC(=O)[C@H](CCCCN)NC(=O)[C@H](CCCCN)NC(=O)[C@@H](N)CCC(=O)O)C(=O)N[C@@H](CCCCN)C(=O)N[C@@H](Cc1c[nH]c2ccccc12)C(=O)N[C@@H](Cc1c[nH]c2ccccc12)C(=O)N[C@@H](CCCN=C(N)N)C(N)=O [EKKRLLKWWR]

MIC (Yersinia enterocolitica): ≥ 50 µM
MIC (Escherichia coli): > 50 µM
MIC [10]: > 50 µM
MIC [1]: > 50 µM
MIC [11]: > 50 µM
MIC [12]: ≥ 50 µM
MIC [13]: > 50 µM
MIC (Salmonella sp.): ≥ 50 µM
SMILES: CC[C@H](C)[C@H](NC(=O)[C@H](CCC(N)=O)NC(=O)[C@@H](N)CCCN=C(N)N)C(=O)N[C@@H](Cc1c[nH]c2ccccc12)C(=O)N[C@@H](CCCN=C(N)N)C(=O)N[C@@H](Cc1c[nH]c2ccccc12)C(=O)N[C@@H](Cc1c[nH]c2ccccc12)C(=O)N[C@@H](CCC(N)=O)C(=O)N[C@@H](Cc1c[nH]c2ccccc12)C(N)=O [RQIWRWWQW]

MIC [14]: 3.35 µM (≈ 7.99 µg/mL)
MIC [8]: 26.8 µM (≈ 64 µg/mL)
MIC [15]: ≥ 53.7 µM
MIC [16]: ≥ 53.7 µM
SMILES: CC[C@H](C)[C@H](NC(=O)[C@H](CCCCN)NC(=O)[C@H](Cc1c[nH]c2ccccc12)NC(=O)[C@H](Cc1c[nH]c2ccccc12)NC(=O)[C@@H](NC(=O)[C@H](CCCCN)NC(=O)[C@H](Cc1c[nH]c2ccccc12)NC(=O)[C@@H](N)CC(C)C)[C@@H](C)CC)C(=O)N[C@@H](Cc1c[nH]c2ccccc12)C(=O)N[C@@H](CCCN=C(N)N)C(=O)N[C@H](C(=O)N[C@@H](Cc1c[nH]c2ccccc12)C(=O)N[C@@H](CCCCN)C(=O)N[C@@H](CC(N)=O)C(=O)N[C@@H](Cc1c[nH]c2ccccc12)C(=O)N[C@@H](CCCN=C(N)N)C(=O)O)C(C)C [LWKIWWKIWRVWKNWR]

MIC [17]: 11.5 µM (≈ 20.5 µg/mL)
MIC (Candida parapsilosis): 23.1 µM (≈ 40.9 µg/mL)
MIC (Bacillus subtilis DELTA): ≥ 57.7 µM
MIC [18]: ≥ 57.7 µM
MIC [19]: 28.8 µM (≈ 51.2 µg/mL)
SMILES: CC[C@H](C)[C@H](NC(=O)[C@H](CCCN=C(N)N)NC(=O)[C@H](CCC(N)=O)NC(=O)[C@H](CC(C)C)NC(=O)[C@@H](NC(=O)[C@H](CCCN=C(N)N)NC(=O)[C@H](CCCCN)NC(=O)[C@H](Cc1ccccc1)NC(C)=O)[C@@H](C)CC)C(=O)N[C@@H](CCCCN)C(=O)N[C@@H](CC(=O)O)C(=O)N[C@@H](Cc1ccccc1)C(=O)N[C@@H](CC(C)C)C(=O)N[C@@H](CCCN=C(N)N)C(N)=O [FKRILQRIKDFLR]

MIC [20]: 1.35 µM (≈ 4 µg/mL)
MIC [21]: 1.35 µM (≈ 4 µg/mL)
MIC [22]: 0.677 µM (≈ 2 µg/mL)
MIC (Candida albicans): > 43.3 µM
MIC [17]: 1.35 µM (≈ 4 µg/mL)
MIC (Pseudomonas fluorescens): 0.677 µM (≈ 2 µg/mL)
MIC (Staphylococcus aureus): > 43.3 µM
MIC (Ralstonia pickettii): 0.677 µM (≈ 2 µg/mL)
MIC [23]: 0.677 µM (≈ 2 µg/mL)
MIC (Escherichia coli UB1005): 0.677 µM (≈ 2 µg/mL)
MIC [24]: 1.35 µM (≈ 4 µg/mL)
MIC [25]: 0.338 µM (≈ 1 µg/mL)
MIC [26]: 10.8 µM (≈ 32 µg/mL)
MIC [27]: 1.35 µM (≈ 4 µg/mL)
SMILES: CC[C@H](C)[C@H](NC(=O)[C@H](Cc1ccccc1)NC(=O)[C@H](CO)NC(=O)[C@H](CCCCN)NC(=O)[C@H](Cc1c[nH]c2ccccc12)NC(=O)[C@@H](N)CCCCN)C(=O)N[C@@H](CCCCN)C(=O)N[C@@H](CCCCN)C(=O)N[C@@H](CC(C)C)C(=O)N[C@H](C(=O)N[C@@H](CCCCN)C(=O)N[C@@H](C)C(=O)N[C@@H](C)C(=O)N[C@@H](CCCCN)C(=O)N[C@@H](CCCCN)C(=O)N[C@H](C(=O)N[C@H](C(=O)N[C@H](C(=O)N[C@H](C(=O)N[C@@H](C)C(=O)N[C@@H](CCCCN)C(=O)N[C@@H](CCCCN)C(=O)N1CCC[C@H]1C(=O)N[C@@H](CC(C)C)C(=O)N[C@H](C(=O)N[C@H](C(N)=O)C(C)C)[C@@H](C)CC)[C@@H](C)O)[C@@H](C)O)C(C)C)C(C)C)[C@@H](C)O [KWKSFIKKLTKAAKKVVTTAKKPLIV]

MIC (Vibrio anguillarum): 1.34 µM (≈ 4 µg/mL)
MIC [28]: 1.34 µM (≈ 4 µg/mL)
MIC [29]: 1.34 µM (≈ 4 µg/mL)
MIC [30]: 2.68 µM (≈ 8 µg/mL)
MIC [31]: 0.167 µM (≈ 0.5 µg/mL)
MIC (Aeromonas salmonicida): 0.335 µM (≈ 1 µg/mL)
MIC [32]: 1.34 µM (≈ 4 µg/mL)
SMILES: CSCC[C@H](NC(=O)[C@@H](NC(=O)[C@H](CCCCN)NC(=O)[C@H](Cc1c[nH]c2ccccc12)NC(=O)[C@H](CC(C)C)NC(=O)[C@H](C)N)[C@@H](C)O)C(=O)N[C@@H](CC(C)C)C(=O)N[C@@H](CCCCN)C(=O)N[C@@H](CCCCN)C(=O)N[C@@H](C)C(=O)N[C@@H](C)C(=O)N[C@@H](Cc1cnc[nH]1)C(=O)N[C@H](C(=O)NCC(=O)N[C@@H](CCCCN)C(=O)N[C@@H](Cc1cnc[nH]1)C(=O)N[C@H](C(=O)NCC(=O)N[C@@H](CCCCN)C(=O)N[C@@H](C)C(=O)N[C@@H](C)C(=O)N[C@@H](CC(C)C)C(=O)N[C@H](C(=O)N[C@@H](Cc1cnc[nH]1)C(=O)N[C@@H](Cc1ccc(O)cc1)C(=O)N[C@@H](CC(C)C)C(=O)N[C@@H](CC(N)=O)C(=O)O)[C@@H](C)O)C(C)C)C(C)C [ALWKTMLKKAAHVGKHVGKAALTHYLN]

Source: DBAASP
